# In ChEMBL document CHEMBL1201862, “PubChem BioAssay data set” (2004):
#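 Grown in 96-well plates, cells were treated for 48 hours with each compound at five concentrations. Insufficient inhibition: endpoint recorded as highest concentration tested. GI50 = concentration required for 50% inhibition of growth.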 Activity calls are given as the source filed them. No stated cut-off is given here; in the data, active = GI50 up to about 1.1 µM and inactive = higher.
# Experiments:
# Test in all cases: NCI tumour cell line growth inhibition, 48 h
# [1] = system: 786-0
# [2] = system: NCI-H226
# [3] = system: SN12C
# [4] = system: OVCAR-8
# [5] = system: PC-3
# [6] = system: K562
# [7] = system: UO-31
# [8] = system: ACHN
# [9] = system: NCI-H460
# [10] = system: HL-60
# [11] = system: M14
# [12] = system: U-251
# [13] = system: NCI-H522
# [14] = system: KM12
# [15] = system: SR
# [16] = system: SF-295
# [17] = system: IGROV-1
# [18] = system: MDA-MB-231
# [19] = system: MCF7
# [20] = system: Malme-3M
# [21] = system: SNB-75
# [22] = system: DU-145
# [23] = system: LXFL 529
# [24] = system: UACC-62
# [25] = system: OVCAR-4
# [26] = system: LOX IMVI
# [27] = system: BT-549
# [28] = system: NCI/ADR-RES
# [29] = system: MDA-MB-435
# [30] = system: OVCAR-3
# [31] = system: XF498
# [32] = system: HCC 2998
# [33] = system: MDA-N
# [34] = system: EKVX
# [35] = system: SF-268
# [36] = system: M19-MEL
# [37] = system: MOLT-4
# [38] = system: TK-10
# [39] = system: KM-20L2
# [40] = system: SW-620
# [41] = system: CAKI-1
# [42] = system: HT-29
# [43] = system: RPMI-8226
# [44] = system: SF-539
# [45] = system: DMS-114
# [46] = system: A498
# [47] = system: HOP-92
# [48] = system: SK-MEL-28
# [49] = system: HCT-15
# [50] = system: A549
# [51] = system: SK-MEL-2
# [52] = system: SK-OV-3
# [53] = system: NCI-H23
# [54] = system: UACC-257
# [55] = system: SK-MEL-5
# [56] = system: SNB-78
# [57] = system: RXF 393
# [58] = system: OVCAR-5
# [59] = system: T47D
# [60] = system: Hs-578T
# [61] = system: HCT-116
# [62] = system: CCRF-CEM
# [63] = system: DLD-1
# [64] = system: COLO 205
# [65] = system: SNB-19
# [66] = system: HOP-62
smiles,measurement,setting,value
N=C1C=CC(=C(c2ccc(N)cc2)c2ccc(N)cc2)C=C1,GI50,[1],2.36 µM (inactive)
same,GI50,[2],3.68 µM (inactive)
same,GI50,[3],0.444 µM (active)
same,GI50,[4],1.91 µM (inactive)
same,GI50,[5],3.12 µM (inactive)
same,GI50,[6],2.39 µM (inactive)
same,GI50,[7],12.5 µM (inactive)
same,GI50,[8],8.17 µM (inactive)
same,GI50,[9],3.61 µM (inactive)
same,GI50,[10],3.85 µM (inactive)
same,GI50,[11],4.05 µM (inactive)
same,GI50,[12],0.406 µM (active)
same,GI50,[13],2.64 µM (inactive)
same,GI50,[14],3.01 µM (inactive)
same,GI50,[15],11.1 µM (inactive)
same,GI50,[16],3.99 µM (inactive)
same,GI50,[17],9.86 µM (inactive)
same,GI50,[18],4.66 µM (inactive)
same,GI50,[19],3.11 µM (inactive)
same,GI50,[20],3.18 µM (inactive)
same,GI50,[21],0.519 µM (active)
same,GI50,[22],5.71 µM (inactive)
same,GI50,[23],1.57 µM (inactive)
same,GI50,[24],3.87 µM (inactive)
same,GI50,[25],9.93 µM (inactive)
same,GI50,[26],3.91 µM (inactive)
same,GI50,[27],0.982 µM (active)
same,GI50,[28],16.2 µM (inactive)
same,GI50,[29],4.18 µM (inactive)
same,GI50,[30],10 µM (inactive)
same,GI50,[31],2.38 µM (inactive)
same,GI50,[32],4.93 µM (inactive)
same,GI50,[33],4.84 µM (inactive)
same,GI50,[34],5.58 µM (inactive)
same,GI50,[35],0.542 µM (active)
same,GI50,[36],4.13 µM (inactive)
same,GI50,[37],3.73 µM (inactive)
same,GI50,[38],10.2 µM (inactive)
same,GI50,[39],4.3 µM (inactive)
same,GI50,[40],3.68 µM (inactive)
same,GI50,[41],19.1 µM (inactive)
same,GI50,[42],3.77 µM (inactive)
same,GI50,[43],2.29 µM (inactive)
same,GI50,[44],2.02 µM (inactive)
same,GI50,[45],2.18 µM (inactive)
same,GI50,[46],6.97 µM (inactive)
same,GI50,[47],3.22 µM (inactive)
same,GI50,[48],8.13 µM (inactive)
same,GI50,[49],12.8 µM
same,GI50,[50],3.73 µM (inactive)
same,GI50,[51],2.9 µM (inactive)
same,GI50,[52],13.1 µM (inactive)
same,GI50,[53],3.63 µM (inactive)
same,GI50,[54],4.59 µM (inactive)
same,GI50,[55],1.09 µM (active)
same,GI50,[56],4.14 µM (inactive)
same,GI50,[57],6.5 µM (inactive)
same,GI50,[58],9.27 µM (inactive)
same,GI50,[59],0.968 µM (active)
same,GI50,[60],0.51 µM (active)
same,GI50,[61],3.87 µM (inactive)
same,GI50,[62],3.15 µM (inactive)
same,GI50,[63],5.12 µM (inactive)
same,GI50,[64],1.64 µM (inactive)
same,GI50,[65],0.532 µM (active)
same,GI50,[66],3.3 µM (inactive)
